Source: patent US20230098995A1 (SYNGENTA CROP PROTECTION AG, priority 2020, published 2023)

Tested on: Corynespora cassiicola
Test: Corynespora cassiicola liquid culture growth inhibition (microtiter plate, PDB)
Assay type: cell-based
Conditions: photometric at 620 nm after 3-4 days at 24 C, compared to untreated control
Description: Conidia of the fungus from cryogenic storage were directly mixed into nutrient broth (PDB potato dextrose broth). A DMSO solution of the test compounds was placed into a microtiter plate (96-well format) and the nutrient broth containing the fungal spores was added to it. The test plates were incubated at 24 C and the inhibition of growth (% control of Corynespora cassiicola) was determined photometrically after 3-4 days at 620 nm. The activity of a compound is derived by comparing the inhibition of growth in the treated test solution to the growth in the untreated check. The concentration of the compounds was 6.7, 2.2, 0.74, 0.25, 0.082 and 0.027 ppm.

SMILES | inhibition at 6.7 ppm [%]
CC(C)CC(C)(Cc1ccccc1)NC(=O)c1cnc2c(F)cccc2c1 (centres unmarked) [Compound 2] | ≥ 70
C=C(Cl)CC(C)(Cc1ccccc1)NC(=O)c1cnc2c(F)cccc2c1 (centres unmarked) [Compound 4] | ≥ 70
CC(C)CC(C)(Cc1cccc(F)c1)NC(=O)c1cnc2c(F)cccc2c1 (centres unmarked) [Compound 6] | ≥ 70
CC(C)C[C@](C)(Cc1ccccc1)NC(=O)c1cnc2c(F)cccc2c1 [Compound 9] | ≥ 70
C[C@](Cc1ccccc1)(CC(F)(F)F)NC(=O)c1cnc2c(F)cccc2c1 [Compound 11] | ≥ 70
C[C@@](Cc1ccccc1)(CC(F)(F)F)NC(=O)c1cnc2c(F)cccc2c1 [Compound 12] | ≥ 70
C=C(Cl)C[C@](C)(Cc1ccccc1)NC(=O)c1cnc2c(F)cccc2c1 [Compound 13] | ≥ 70
CC(C)C[C@@](C)(Cc1ccccc1)NC(=O)c1cnc2c(F)c(F)ccc2c1 [Compound 16] | ≥ 70
